Active and inactive are the calls of the source. The calls are words filed in the database; no cut-off is given here.
Experiments:
Cathepsin D = Cathepsin D (Homo sapiens, UniProt P07339); experiment: Inhibition of human cathepsin D using GKPILFFRLK(DNP)-D-RNH2) labeled MCA as substrate preincubated for 10 mins followed by substrate addition measured after 1 to 2 hrs by fluorometric method
HL-60 = experiment: Growth inhibition of human HL60 cells up to 10 uM after 72 hrs by MTT assay; type: functional, cell-based
HeLa = experiment: Growth inhibition of human HeLa cells up to 10 uM after 72 hrs by MTT assay; type: functional, cell-based
MCF7 = experiment: Growth inhibition of human MCF7 cells up to 10 uM after 72 hrs by MTT assay; type: functional, cell-based

Sequence of Cathepsin D (P07339 65-162 limits assumed): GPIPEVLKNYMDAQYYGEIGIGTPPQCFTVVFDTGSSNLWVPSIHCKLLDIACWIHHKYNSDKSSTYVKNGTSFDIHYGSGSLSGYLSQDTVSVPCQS
Sequence of Cathepsin D (P07339 169-412 limits assumed): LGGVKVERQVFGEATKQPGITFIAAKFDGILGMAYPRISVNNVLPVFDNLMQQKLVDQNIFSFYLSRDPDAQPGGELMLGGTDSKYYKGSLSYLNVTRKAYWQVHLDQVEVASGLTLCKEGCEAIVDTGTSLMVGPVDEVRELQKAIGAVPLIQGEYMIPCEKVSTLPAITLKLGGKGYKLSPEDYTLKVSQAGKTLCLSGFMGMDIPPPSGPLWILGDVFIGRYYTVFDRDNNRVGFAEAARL

| IC50 (Cathepsin D) | SMILES | growth inhibition (GI) (HL-60) | growth inhibition (GI) (HeLa) | growth inhibition (GI) (MCF7) |
| --- | --- | --- | --- | --- |
| > 10 µM | CC[C@H](C)[C@H](NC(=O)[C@H](OC(=O)[C@@H](O)C(C)C)[C@@H](C)CC)C(=O)NCC(=O)N(C)[C@H](Cc1ccccc1)C(=O)N1CCC[C@H]1C(=O)OC | inactive | inactive | inactive |
| 0.27 µM | CC[C@H](C)[C@H](NC(=O)C[C@H](O)[C@H](CC(C)C)NC(=O)[C@H](OC(=O)[C@@H](O)C(C)C)[C@@H](C)CC)C(=O)N[C@@H](C)C(=O)N(C)[C@H](Cc1ccccc1)C(=O)N1CCC[C@H]1C(=O)OC | inactive | inactive | inactive |
| 0.38 µM | CC[C@H](C)[C@H](NC(=O)C[C@H](O)[C@H](CC(C)C)NC(=O)[C@H](OC(=O)[C@@H](O)C(C)C)C(C)C)C(=O)N[C@@H](C)C(=O)N(C)[C@H](Cc1ccccc1)C(=O)N1CCC[C@H]1C(=O)OC | inactive | inactive | inactive |

Reference: ChEMBL document CHEMBL4145636, “Izenamides A and B, Statine-Containing Depsipeptides, and an Analogue from a Marine Cyanobacterium” (J Nat Prod, 2018)
